Our source for the IC50 values is patent US11319318B2, “Pyridinones and isoquinolinones as inhibitors of the bromodomain BRD9” (Boehringer Ingelheim International GmbH, priority 2015, dated 2022).

In general, IC50 refers to the point on the concentration scale where inhibition reaches its midpoint.

The assay deals with T1, bromodomain of BRD9 (GST fusion) / acetylated histone H4 peptide (BET Bromodomain Ligand) (Homo sapiens, UniProt Q9H8M2).
T1 construct: A GST fusion protein of the bromodomain of BRD9; purchased BPS Biosciences #32519
T1 sequence (Q9H8M2 136-240 limits assumed): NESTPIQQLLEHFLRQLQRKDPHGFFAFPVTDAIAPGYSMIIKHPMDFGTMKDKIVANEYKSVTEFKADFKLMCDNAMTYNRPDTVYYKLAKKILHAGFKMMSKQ
As to the kind of experiment: BRD9-H4 Tetraacetylated Peptide Inhibition AlphaScreen. In kind it is binding. An excerpt:
BRD9-H4 Tetraacetylated Peptide Inhibition AlphaScreen
This assay is used to identify compounds which inhibit the interaction of the bromodomain of BRD9 with a tetra-acetylated peptide based on the sequence of histone H4 (termed the “BET Bromodomain ligand” as purchased from BPS Biosciences).
A GST fusion protein of the bromodomain of BRD9 and an acetylated histone H4 peptide (the “BET Bromodomain Ligand” are purchased as part of the BRD9 Inhibitor Screening Assay Kit at BPS Biosciences (Cat. Number: #32519)
AlphaScreen Beads (Perkin Elmer):
AlphaLISA Glutathione Acceptor Beads
AlphaScreen Streptavidin Donor Beads
Assay plates: Proxiplate-384 PLUS, white (PerkinElmer)
The assay is done in a darkened room below 100 Lux.
Compounds are dispensed onto assay plates using an Access Labcyte Workstation with the Labcyte Echo 550 from a DMSO solution. For the chosen highest concentration of 100 μM, 150 nl of compound solution are transferred from a 10 mM DMSO solution. A series of 11 concentrations is transferred for each compound at which each concentration is five-fold lower than the previous one (i.e. 100 μM, 20 μM, 4 μM, 0.8 μM, etc). DMSO is added such that every well has a total of 150 nl of DMSO.
15 μl of the resulting mix are added to the assay plates that contain 150 nl of the compounds. After 60 min at room temperature the signal is measured in a PerkinElmer Envision HTS Multilabel Reader using the AlphaScreen specifications from PerkinElmer.
Each plate contains negative controls where biotinylated BET Bromodomain Ligand and GST-BRD9 are left out and replaced by assay buffer. Negative control values are entered as low basis value when using the software GraphPad Prism for calculations.

In the case of `CCn1cc(-c2ccc(C(=O)N3CCN(C)CC3)cc2)c2ccccc2c1=O` [II-15], the IC50 came to 398 nM. For `CCn1cc(-c2ccc(C(=O)N(C)C)cc2)c2ccccc2c1=O` [II-16], the IC50 was 983 nM. With `CN1CCN(C(=O)c2ccc(-c3cn(C4CC4)c(=O)c4ccccc34)cc2)CC1` [II-18] the figure was 984 nM. Compound `Cc1ccc(-c2cn(C)c(=O)c3cccc(F)c23)cc1NS(C)(=O)=O` [II-27] yielded an IC50 of 1160 nM. `Cc1ccc(-c2cn(C)c(=O)c3cccc(C)c23)cc1NS(C)(=O)=O` [II-28, N-[5-(2,5-Dimethyl-1-oxo-1,2-dihydro-isoquinolin-4-yl)-2-methyl-phenyl]-methanesulfonamide]: the IC50 is 923 nM.

With `Cc1ccc(-c2cn(C)c(=O)c3ccccc23)cc1NS(C)(=O)=O` [II-29], the IC50 was determined as 239 nM. As to `CCS(=O)(=O)Nc1cc(-c2cn(C)c(=O)c3ccccc23)ccc1C` [II-35, Ethanesulfonic acid [2-methyl-5-(2-methyl-1-oxo-1,2-dihydro-isoquinolin-4-yl)-phenyl]-amide], inhibition was half-maximal at 293 nM (IC50). The compound `Cc1ccc(-c2cn(C)c(=O)c3cccc(O)c23)cc1NS(C)(=O)=O` [II-36, N-[5-(5-Hydroxy-2-methyl-1-oxo-1,2-dihydro-isoquinolin-4-yl)-2-methyl-phenyl]-methanesulfonamide] came in with an IC50 of 5250 nM. `Cc1ccc(-c2cn(C)c(=O)c3cc(N)ccc23)cc1NS(C)(=O)=O` [II-37, N-[5-(7-Amino-2-methyl-1-oxo-1,2-dihydro-isoquinolin-4-yl)-2-methyl-phenyl]-methanesulfonamide] displayed an IC50 of 2690 nM.

Compound `Cc1ccc(-c2cn(C)c(=O)c3cccc(N)c23)cc1NS(C)(=O)=O` [II-38, N-[5-(5-amino-2-methyl-1-oxo-1,2-dihydro-isoquinolin-4-yl)-2-methyl-phenyl]-methanesulfonamide] came in with an IC50 of 8420 nM. Then `CNc1cccc2c(=O)n(C)cc(-c3ccc(C)c(NS(C)(=O)=O)c3)c12` [II-39, N-[2-Methyl-5-(2-methyl-5-methylamino-1-oxo-1,2-dihydro-isoquinolin-4-yl)-phenyl]-methanesulfonamide], with 7830 nM; and `CNc1ccc2c(-c3ccc(C)c(NS(C)(=O)=O)c3)cn(C)c(=O)c2c1` [II-40], with 5440 nM. `CCn1cc(-c2ccc(C)c(NS(C)(=O)=O)c2)c2cc[nH]c2c1=O` [III-1, N-[5-(6-Ethyl-7-oxo-6,7-dihydro-1H-pyrrolo[2,3-c]pyridin-4-yl)-2-methyl-phenyl]-methanesulfonamide]: the IC50 stood at 645 nM.
